Patent publication US9695155B2, “Herbicidal substituted pyrimidinyloxy benzene compounds” (E. I. DU PONT DE NEMOURS AND COMPANY, priority 2013, dated 2017)

Assays:
yellow nutsedge = experiment: Test C postemergence; assay type: in vivo, Cyperus esculentus
Source text: (§1) Seeds of plant species selected from blackgrass (Alopecurus myosuroides), Italian ryegrass (Lolium multiflorum), wheat, winter (winter wheat, Triticum aestivum), galium (catchweed bedstraw, Galium aparine), corn (Zea mays), large (Lg) crabgrass (Digitaria sanguinalis), giant foxtail (Setaria faberii), johnsongrass (Sorghum halepense), lambsquarters (Chenopodium album), morningglory (Ipomoea coccinea), yellow nutsedge (Cyperus esculentus), pigweed (Amaranthus retroflexus), ragweed (common ragweed, Ambrosia elatior), soybean (Glycine max), barnyardgrass (Echinochloa crus-galli), oilseed rape (Brassica napus), waterhemp (common waterhemp, Amaranthus rudis), kochia (Kochia scoparia), wild oat (Avena fatua), surinam grass (Brachiaria decumbens), foxtail, green (green foxtail, Setaria viridis), goosegrass (Eleusine indica), bromegrass, downy (downy bromegrass, Bromus tectorum), nightshade (eastern black nightshade, Solanum ptycanthum), cocklebur (common cocklebur, Xanthium strumarium), cupgrass, woolly (woolly cupgrass, Eriochloa villosa), bermudagrass (Cynodon dactylon), sunflower, (common oilseed sunflower, Helianthus annuus), Russian thistle (Salsola kali), and velvetleaf (Abutilon theophrasti) were planted into a blend of loam soil and sand and treated preemergence with test chemicals formulated in a non-phytotoxic solvent mixture which included a surfactant.
(§2) At the same time, plants selected from these crop and weed species and also barley, winter (winter barley, Hordeum vulgare), windgrass (Apera spica-venti), chickweed (common chickweed, Stellaria media), deadnettle (henbit deadnettle, Lamium amplexicaule), and canarygrass (littleseed canarygrass, Phalaris minor) were planted in pots containing Redi-Earth® planting medium (Scotts Company, 14111 Scottslawn Road, Marysville, Ohio 43041) comprising spaghnum peat moss, vermiculite, wetting agent and starter nutrients and treated with postemergence applications of test chemicals formulated in the same manner. Plants ranged in height from 2 to 18 cm (1- to 4-leaf stage) for postemergence treatments. Treated plants and controls were maintained in a greenhouse for 13 to 15 days, after which time all species were compared to controls and visually evaluated. Plant response ratings, summarized in Table C, are based on a scale of 0 to 100 where 0 is no effect and 100 is complete control. A dash (-) response means no test result.

Heteranthera limosa = experiment: Test B flooded paddy test; assay type: in vivo; conditions: Flood, 250 g ai/ha; 0 to 100 scale where 0 is no effect and 100 is complete control
Method in brief: (§3)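 Evaluation is visual, against untreated controls, 13 to 15 days after treatment. Before treatment, plants reached the 2-leaf stage; pots were then flooded 3 cm deep, compound was added to the water, and that level was maintained. Ratings run 0 to 100, with 100 meaning complete control.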

barnyardgrass [1] = experiment: Test B flooded paddy test; assay type: in vivo, Echinochloa crus-galli; conditions: Flood, 250 g ai/ha; 0 to 100 scale where 0 is no effect and 100 is complete control
Method in brief: as §3

morningglory [2] = experiment: Test C postemergence; assay type: in vivo, Ipomoea coccinea
Source text: as §1, §2

barnyardgrass [3] = experiment: Test A postemergence; assay type: in vivo, Echinochloa crus-galli
Method in brief: (§4)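 Injury scores run from 0, no effect, to 100, complete control, judged by eye against untreated plants roughly 10 days after treatment. Chemicals carried a surfactant in a non-phytotoxic solvent and went onto loam–sand soil preemergence or onto one- to two-leaf seedlings postemergence.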

corn [4] = experiment: Test C postemergence; assay type: in vivo, Zea mays
Source text: as §1, §2

wheat, winter = experiment: Test C postemergence; assay type: in vivo, Triticum aestivum
Source text: as §1, §2

soybean = experiment: Test C postemergence; assay type: in vivo, Glycine max
Source text: as §1, §2

wheat = experiment: Test A postemergence; assay type: in vivo, Triticum aestivum
Method in brief: as §4

rice = experiment: Test B flooded paddy test; assay type: in vivo, Oryza sativa; conditions: Flood, 250 g ai/ha; 0 to 100 scale where 0 is no effect and 100 is complete control
Method in brief: as §3

sedge, umbrella = experiment: Test B flooded paddy test; assay type: in vivo, Cyperus difformis; conditions: Flood, 250 g ai/ha; 0 to 100 scale where 0 is no effect and 100 is complete control
Method in brief: as §3

ragweed = experiment: Test C postemergence; assay type: in vivo, Ambrosia elatior
Source text: as §1, §2

giant foxtail = experiment: Test C postemergence; assay type: in vivo, Setaria faberii
Source text: as §1, §2

morningglory [5] = experiment: Test A preemergence; assay type: in vivo, Ipomoea spp.; conditions: for Morningglory plant response rating (0 to 100 scale): 125 g ai/ha; for Morningglory plant response rating: 500 g ai/ha, 0 to 100 scale where 0 is no effect and 100 is complete control
Method in brief: as §4

corn [6] = experiment: Test A preemergence; assay type: in vivo, Zea mays; conditions: for Corn plant response rating: 500 g ai/ha
Method in brief: as §4

velvetleaf = experiment: Test A preemergence; assay type: in vivo, Abutilon theophrasti; conditions: for Velvetleaf plant response rating (0 to 100 scale): 125 g ai/ha; for Velvetleaf plant response rating: 500 g ai/ha, 0 to 100 scale where 0 is no effect and 100 is complete control
Method in brief: as §4

large (Lg) crabgrass = experiment: Test A preemergence; assay type: in vivo, Digitaria sanguinalis; conditions: for Crabgrass, Large plant response rating: 500 g ai/ha
Method in brief: as §4

[7] = 16 g ai/ha, postemergence, 0 is no effect, 100 is complete control
[8] = 31 g ai/ha, postemergence, visual rating, scale 0 to 100 (0 no effect, 100 complete control), 13 to 15 days
[9] = 125 g ai/ha, postemergence, visual rating, scale 0 to 100 (0 no effect, 100 complete control)
[10] = Postemergence, 62 g ai/ha, scale 0 to 100 (0 no effect, 100 complete control), 13 to 15 days
[11] = 125 g ai/ha, 0 to 100 scale, 0 no effect, 100 complete control
[12] = 500 g ai/ha, 0 to 100 scale where 0 is no effect and 100 is complete control
[13] = 125 g ai/ha, 0 to 100 scale where 0 is no effect and 100 is complete control
[14] = 0 to 100 scale where 0 is no effect and 100 is complete control

N#Cc1cn(-c2c(C#N)cccc2Oc2ncc(Cl)cn2)nn1 [Compound 273]
Plant response rating (0 to 100), Nutsedge, Yellow (yellow nutsedge; [7]): 10
Nutsedge, Yellow plant response rating (yellow nutsedge; [8]): 5
Plant response rating, Nutsedge, Yellow (yellow nutsedge; [9]): 25
Plant response rating, Nutsedge, Yellow (yellow nutsedge; [10]): 5
Plant response rating, Ducksalad (Heteranthera limosa): 75
Plant response rating, Barnyardgrass (barnyardgrass [1]): 0
Plant response rating (0 to 100), Morningglory (morningglory [2]; [7]): 60
Morningglory plant response rating (morningglory [2]; [8]): 65
Plant response rating, Morningglory (morningglory [2]; [9]): 85
Plant response rating, Morningglory (morningglory [2]; [10]): 65
Plant response rating, Barnyardgrass (barnyardgrass [3]; [11]): 70
Plant response rating, Barnyardgrass (barnyardgrass [3]; [12]): 90
Plant response rating (0 to 100), Corn (corn [4]; [7]): 5
Corn plant response rating (corn [4]; [8]): 5
Plant response rating, Corn (corn [4]; [9]): 5
Plant response rating, Corn (corn [4]; [10]): 5
Plant response rating (0 to 100), Wheat (wheat, winter; [7]): 0
Wheat plant response rating (wheat, winter; [8]): 0
Plant response rating, Wheat (wheat, winter; [9]): 10
Plant response rating, Wheat (wheat, winter; [10]): 0
Plant response rating (0 to 100), Soybean (soybean; [7]): 60
Soybean plant response rating (soybean; [8]): 70
Plant response rating, Soybean (soybean; [9]): 90
Plant response rating, Soybean (soybean; [10]): 90
Plant response rating, Wheat (wheat; [11]): 10
Plant response rating, Wheat (wheat; [12]): 50
Plant response rating, Rice (rice): 0
Plant response rating, Sedge, Umbrella (sedge, umbrella): 75
Plant response rating (0 to 100), Ragweed (ragweed; [7]): 30
Ragweed plant response rating (ragweed; [8]): 55
Plant response rating, Ragweed (ragweed; [9]): 80
Plant response rating, Ragweed (ragweed; [10]): 55
Plant response rating (0 to 100), Foxtail, Giant (giant foxtail; [7]): 10
Foxtail, Giant plant response rating (giant foxtail; [8]): 40
Plant response rating, Foxtail, Giant (giant foxtail; [9]): 20
Plant response rating, Foxtail, Giant (giant foxtail; [10]): 10

FC(F)c1cccc(Oc2ncc(Cl)cn2)c1-n1cc(C(F)(F)F)cn1 [Compound 170]
Plant response rating, Ducksalad (Heteranthera limosa): 95
Plant response rating, Barnyardgrass (barnyardgrass [1]): 70
Barnyardgrass plant response rating (barnyardgrass [3]; [13]): 70
Plant response rating, Barnyardgrass (barnyardgrass [3]; [12]): 90
Morningglory plant response rating (0 to 100 scale) (morningglory [5]): 20
Morningglory plant response rating (morningglory [5]): 90
Plant response rating, Corn (corn [6]; [13]): 0
Corn plant response rating (corn [6]; [14]): 20
Wheat plant response rating (wheat; [13]): 30
Plant response rating, Wheat (wheat; [12]): 70
Velvetleaf plant response rating (0 to 100 scale) (velvetleaf): 80
Velvetleaf plant response rating (velvetleaf): 100
Plant response rating, Crabgrass, Large (large (Lg) crabgrass; [13]): 100
Crabgrass, Large plant response rating (large (Lg) crabgrass; [14]): 100
Plant response rating, Rice (rice): 50
Plant response rating, Sedge, Umbrella (sedge, umbrella): 90

NC(=S)c1cccc(Oc2ncc(Cl)cn2)c1-n1cc(Cl)cn1 [Compound 292]
Plant response rating, Ducksalad (Heteranthera limosa): 45
Plant response rating, Barnyardgrass (barnyardgrass [1]): 20
Plant response rating, Barnyardgrass (barnyardgrass [3]; [11]): 60
Plant response rating, Barnyardgrass (barnyardgrass [3]; [12]): 90
Morningglory plant response rating (0 to 100 scale) (morningglory [5]): 30
Morningglory plant response rating (morningglory [5]): 90
Corn plant response rating (0 to 100 scale) (corn [6]; 125 g ai/ha): 20
Corn plant response rating (corn [6]; [14]): 30
Plant response rating, Wheat (wheat; [11]): 10
Plant response rating, Wheat (wheat; [12]): 60
Velvetleaf plant response rating (0 to 100 scale) (velvetleaf): 30
Velvetleaf plant response rating (velvetleaf): 100
Crabgrass, Large plant response rating (0 to 100 scale) (large (Lg) crabgrass; 125 g ai/ha): 100
Crabgrass, Large plant response rating (large (Lg) crabgrass; [14]): 100
Plant response rating, Rice (rice): 20
Plant response rating, Sedge, Umbrella (sedge, umbrella): 75

N#Cc1cnn(-c2c(C#N)cccc2Oc2ncc(Br)cn2)c1 [Compound 135]
Plant response rating, Ducksalad (Heteranthera limosa): 70
Plant response rating, Barnyardgrass (barnyardgrass [1]): 30
Barnyardgrass plant response rating (barnyardgrass [3]; [13]): 40
Plant response rating, Barnyardgrass (barnyardgrass [3]; [12]): 100
Wheat plant response rating (wheat; [13]): 10
Plant response rating, Wheat (wheat; [12]): 60
Plant response rating, Rice (rice): 0
Plant response rating, Sedge, Umbrella (sedge, umbrella): 75
